Patent EP0908457B1, “3-(1,2-benzisothiazol- and isoxazol-5-Y1)-2,4(1H,3H)-pyrimidinedione or thione and 3-(1,2-benzisothiazol- and isoxazol-5-y1)-4(3H)-pyrimidinone or thione herbicidal agents” (BASF AKTIENGESELLSCHAFT, priority 1997, dated 1999)

How the values were obtained:
Cyperus iria = test: Preemergence weed control under flooded paddy conditions, CYPIR (Rice Flatsedge); format: in vivo; settings: flooded paddy, rated three to four weeks after treatment
[1] = system: Oryza sativa, (L.) Tebonnet; test: Rice tolerance to post-transplant applications under flooded paddy conditions (Example 187), ORYSAT (Rice, Tebonnet); settings: rated three to four weeks after treatment
[2] = system: Cyperus serotinus, Rottb.; test: Preemergence weed control under flooded paddy conditions, CYPSE (Flatsedge); format: in vivo; settings: rated three to four weeks after treatment
[3] = system: Echinochloa oryzoides (Ard.) Fritsch.; test: Preemergence weed control under flooded paddy conditions, ECHORC (Watergrass (Calif.)); format: in vivo; settings: flooded paddy, rated three to four weeks after treatment
Sagittaria pygmaea, L. = test: Preemergence weed control under flooded paddy conditions, SAGPY (Arrowhead (Pygmaea)); format: in vivo; settings: flooded paddy, rated three to four weeks after treatment
[4] = Rate 0.0320 kg/ha, preemergence
[5] = Rate 0.0620 kg/ha, preemergence
[6] = Rate 0.1250 kg/ha, preemergence
[7] = Rate 0.2500 kg/ha, preemergence
[8] = Rate 0.0320 kg/ha, preemergence weeds
[9] = Rate 0.0620 kg/ha, preemergence weeds
[10] = Rate 0.1250 kg/ha, preemergence weeds
[11] = Rate 0.2500 kg/ha, preemergence weeds
Note: meaning of each grade not given here.

Compound | herbicidal effect rating ORYSAT ([1]; Rate 0.0320 kg/ha) | herbicidal effect rating ORYSAT ([1]; Rate 0.0620 kg/ha) | herbicidal effect rating ORYSAT ([1]; Rate 0.1250 kg/ha) | herbicidal effect rating ORYSAT ([1]; Rate 0.2500 kg/ha) | herbicidal effect rating, CYPIR (Cyperus iria; [8]) | herbicidal effect rating, CYPIR (Cyperus iria; [9]) | herbicidal effect rating, CYPIR (Cyperus iria; [10]) | herbicidal effect rating, CYPIR (Cyperus iria; [11]) | herbicidal effect rating, CYPSE [2, 8] | herbicidal effect rating, CYPSE [2, 9] | herbicidal effect rating, CYPSE [2, 10] | herbicidal effect rating, CYPSE [2, 11] | herbicidal effect rating, ECHORC [3, 8] | herbicidal effect rating, ECHORC [3, 9] | herbicidal effect rating, ECHORC [3, 10] | herbicidal effect rating, ECHORC [3, 11] | herbicidal effect rating, SAGPY (Sagittaria pygmaea, L.; [8]) | herbicidal effect rating, SAGPY (Sagittaria pygmaea, L.; [9]) | herbicidal effect rating, SAGPY (Sagittaria pygmaea, L.; [10]) | herbicidal effect rating, SAGPY (Sagittaria pygmaea, L.; [11]) | also measured
C=CCOC(C)c1nsc2ccc(-n3c(=O)cc(C(F)(F)F)n(C)c3=O)cc12 (stereo not drawn) [Example 351, 2,4(1H,3H)-Pyrimidinedione, 3-{3-[1-(allyloxy)ethyl]-1,2-benzisothiazol-5-yl}-1-methyl-6-(trifluoromethyl)-] | 7.0 | 7.0 | 7.0 | 9.0 |  |  |  |  |  |  |  |  |  |  |  |  |  |  |  |  | herbicidal effect rating, CYPIR (Cyperus iria; [4]): 6.0; herbicidal effect rating, CYPIR (Cyperus iria; [5]): 7.0; herbicidal effect rating, CYPIR (Cyperus iria; [6]): 7.0; herbicidal effect rating, CYPIR (Cyperus iria; [7]): 9.0; herbicidal effect rating, CYPSE [2, 4]: 0.0; herbicidal effect rating, CYPSE [2, 5]: 6.0; herbicidal effect rating, CYPSE [2, 6]: 6.0; herbicidal effect rating, CYPSE [2, 7]: 8.0; herbicidal effect rating, ECHORC [3, 4]: 5.0; herbicidal effect rating, ECHORC [3, 5]: 6.0; herbicidal effect rating, ECHORC [3, 6]: 6.0; herbicidal effect rating, ECHORC [3, 7]: 7.0; herbicidal effect rating, SAGPY (Sagittaria pygmaea, L.; [4]): 5.0; herbicidal effect rating, SAGPY (Sagittaria pygmaea, L.; [5]): 6.0; herbicidal effect rating, SAGPY (Sagittaria pygmaea, L.; [6]): 7.0; herbicidal effect rating, SAGPY (Sagittaria pygmaea, L.; [7]): 7.0
CC(Br)c1nsc2ccc(-n3c(=O)cc(C(F)(F)F)n(C)c3=O)cc12 (stereo not drawn) [Example 339, 2,4(1H,3H)-Pyrimidinedione, 3-[3-(1-bromoethyl)-1,2-benzisothiazol-5-yl]-1-methyl-6-(trifluoromethyl)-] | 5.0 | 7.0 | 9.0 | 9.0 | 4.0 | 4.0 | 7.0 | 7.0 | 0.0 | 0.0 | 6.0 | 9.0 | 0.0 | 0.0 | 4.0 | 6.0 | 5.0 | 5.0 | 5.0 | 9.0 | 
CC(Oc1ccccc1-c1nsc2ccc(-n3c(=O)cc(C(F)(F)F)n(C)c3=O)cc12)C(=O)NS(C)(=O)=O (stereo not drawn) [Example 335, Propionamide, 2-{o-{5-[3,6-dihydro-3-methyl-2,6-dioxo-4-(trifluoromethyl)-1(2H)-pyrimidinyl]-1,2-benzisothiazol-3-yl}phenoxy}-N-(methylsulfonyl)-] | 3.0 | 4.0 | 5.0 | 7.0 | 0.0 | 0.0 | 2.0 | 2.0 | 0.0 | 0.0 | 6.0 | 6.0 | 6.0 | 7.0 | 7.0 | 9.0 | 0.0 | 0.0 | 4.0 | 4.0 | 
Cn1c(C(F)(F)F)cc(=O)n(-c2ccc3snc(C(=O)CBr)c3c2)c1=O [Example 337, 2,4(1H,3H)-Pyrimidinedione, 3-[3-(bromoacetyl)-1,2-benzisothiazol-5-yl]-1-methyl-6-(trifluoromethyl)-] | 3.0 | 3.0 | 3.0 | 3.0 | 0.0 | 0.0 | 6.0 | 9.0 | 0.0 | 0.0 | 0.0 | 9.0 | 2.0 | 2.0 | 6.0 | 6.0 | 0.0 | 0.0 | 0.0 | 3.0 | 
C#CCOC(=O)COc1ccc(OC)cc1-c1nsc2ccc(-n3c(=O)cc(C(F)(F)F)n(C)c3=O)cc12 [Example 349, Acetic acid, {2-{5-[3,6-dihydro-3-methyl-2,6-dioxo-4-(trifluoromethyl)-1(2H)-pyrimidinyl]-1,2-benzisothiazol-3-yl}-4-methoxyphenoxy}-, 2-propynyl ester] | 4.0 | 5.0 | 7.0 | 7.0 |  |  |  | 7.0 |  |  |  | 4.0 |  |  |  | 7.0 |  |  |  | 6.0 | herbicidal effect rating, CYPIR (Cyperus iria; [4]): 0.0; herbicidal effect rating, CYPIR (Cyperus iria; [5]): 4.0; herbicidal effect rating, CYPIR (Cyperus iria; [6]): 7.0; herbicidal effect rating, CYPSE [2, 4]: 4.0; herbicidal effect rating, CYPSE [2, 5]: 4.0; herbicidal effect rating, CYPSE [2, 6]: 4.0; herbicidal effect rating, ECHORC [3, 4]: 5.0; herbicidal effect rating, ECHORC [3, 5]: 5.0; herbicidal effect rating, ECHORC [3, 6]: 6.0; herbicidal effect rating, SAGPY (Sagittaria pygmaea, L.; [4]): 4.0; herbicidal effect rating, SAGPY (Sagittaria pygmaea, L.; [5]): 5.0; herbicidal effect rating, SAGPY (Sagittaria pygmaea, L.; [6]): 5.0
Cn1c(C(F)(F)F)cc(=O)n(-c2ccc3snc(C(C#N)=Cc4cnc[nH]4)c3c2)c1=O [Example 595, 1,2-Benzisothiazole-3-acetonitrile, 5-[3,6-dihydro-3-methyl-2,6-dioxo-4-(trifluoromethyl)-1(2H)-pyrimidinyl]-alpha-(imidazol-5-ylmethylene)-] |  | 0.0 | 0.0 | 2.0 |  |  |  |  |  |  |  |  |  |  |  |  |  |  |  |  | herbicidal effect rating, CYPIR (Cyperus iria; [5]): 0.0; herbicidal effect rating, CYPIR (Cyperus iria; [6]): 2.0; herbicidal effect rating, CYPIR (Cyperus iria; [7]): 4.0; herbicidal effect rating, CYPSE [2, 6]: 0.0; herbicidal effect rating, ECHORC [3, 5]: 0.0; herbicidal effect rating, ECHORC [3, 6]: 3.0; herbicidal effect rating, ECHORC [3, 7]: 4.0; herbicidal effect rating, SAGPY (Sagittaria pygmaea, L.; [5]): 0.0; herbicidal effect rating, SAGPY (Sagittaria pygmaea, L.; [6]): 0.0; herbicidal effect rating, SAGPY (Sagittaria pygmaea, L.; [7]): 0.0
COC(=O)COc1ccc(OC)cc1-c1nsc2ccc(-n3c(=O)cc(C(F)(F)F)n(C)c3=O)cc12 [Example 347, Acetic acid, {2-{5-[3,6-dihydro-3-methyl-2,6-dioxo-4-(trifluoromethyl)-1(2H)-pyrimidinyl]-1,2-benzisothiazol-3-yl}-4-methoxyphenoxy}-, methyl ester] | 3.0 | 6.0 | 7.0 | 9.0 | 7.0 | 9.0 | 9.0 | 9.0 | 0.0 | 0.0 | 4.0 | 7.0 | 7.0 | 9.0 | 9.0 | 9.0 | 2.0 | 3.0 | 4.0 | 5.0 | 
COC(=O)C(C)Oc1ccc(OC)cc1-c1nsc2ccc(-n3c(=O)cc(C(F)(F)F)n(C)c3=O)cc12 (stereo not drawn) [Example 348, Propionic acid, 2-{2-{5-[3,6-dihydro-3-methyl-2,6-dioxo-4-(trifluoromethyl)-1(2H)-pyrimidinyl]-1,2-benzisothiazol-3-yl}-4-methoxyphenoxy}-, methyl ester] | 2.0 | 3.0 | 4.0 | 5.0 | 0.0 | 0.0 | 6.0 | 9.0 | 0.0 | 0.0 | 0.0 | 0.0 | 6.0 | 6.0 | 7.0 | 9.0 | 4.0 | 6.0 | 7.0 | 9.0 | 
